Values joined by “and” are separate entries in the source; they are usually repeats but may differ in a detail not shown here. Identical values can stand only once. Like-named read-outs stand apart in the source and are kept apart here.
How the values were obtained:
Recombinant human DESC1 = molecular target: T1, Recombinant human DESC1 (Homo sapiens, UniProt Q9UL52); experiment: Protease selectivity, Ki on recombinant protease; type: biochemical; conditions: mean ± s.d., max concentration 10 µM; read-out: Ki DESC1
T1 construct: made in house
T1 sequence (Q9UL52 1-423): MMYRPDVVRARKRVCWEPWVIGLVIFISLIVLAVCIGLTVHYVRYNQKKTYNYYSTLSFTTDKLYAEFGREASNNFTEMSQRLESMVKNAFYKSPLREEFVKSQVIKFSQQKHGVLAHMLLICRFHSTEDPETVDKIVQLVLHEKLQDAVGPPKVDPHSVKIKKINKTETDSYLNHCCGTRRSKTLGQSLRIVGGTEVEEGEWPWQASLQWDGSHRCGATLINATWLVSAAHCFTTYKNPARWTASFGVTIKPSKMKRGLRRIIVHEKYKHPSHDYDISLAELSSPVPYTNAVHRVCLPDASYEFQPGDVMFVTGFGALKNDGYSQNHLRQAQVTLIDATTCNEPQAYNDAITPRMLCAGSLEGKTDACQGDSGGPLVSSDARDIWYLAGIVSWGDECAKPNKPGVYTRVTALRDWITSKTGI

human cathepsin L = molecular target: T2, human cathepsin L (Homo sapiens, UniProt P07711); experiment: Protease selectivity, Ki on protease; type: biochemical; conditions: mean ± s.d., max concentration 10 µM; read-out: Ki Cathepsin L
T2 construct: purchased Bio-Techne
T2 sequence (P07711 114-333): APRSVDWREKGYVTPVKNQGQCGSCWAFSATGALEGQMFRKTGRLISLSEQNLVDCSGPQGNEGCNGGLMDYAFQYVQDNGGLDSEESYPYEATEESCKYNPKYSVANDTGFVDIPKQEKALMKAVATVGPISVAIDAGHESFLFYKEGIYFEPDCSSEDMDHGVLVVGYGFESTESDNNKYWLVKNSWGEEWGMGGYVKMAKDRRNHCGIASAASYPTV

[1] = Cytotoxicity CC50 in Calu-3 lung epithelial cells; type: cell-based, human; conditions: human, Calu-3 cells; for viability at 24 h, 3000 µM: Log [inhibitor] -2.52; for viability at 24 h, 1000 µM: Log [inhibitor] -3.00; for viability at 24 h, 300 µM: Log [inhibitor] -3.52; for viability at 24 h, 100 µM: Log [inhibitor] -4.00; for viability at 24 h, 30 µM: Log [inhibitor] -4.52; for viability at 24 h, 10 µM: Log [inhibitor] -5.00; for viability at 24 h, 3 µM: Log [inhibitor] -5.52; for viability at 24 h, 0.3 µM: Log [inhibitor] -6.52; for viability at 24 h, 0.03 µM: Log [inhibitor] -7.52; for viability at 24 h, 0.003 µM: Log [inhibitor] -8.52; for CC50 at 24 h: unit not given for CC50, read-out: CC50
Calu-3 cells = experiment: Cytotoxicity CC50 in Calu-3 lung epithelial cells; type: cell-based, human; conditions: single replicates
Recombinant human furin = molecular target: T3, Recombinant human furin (Homo sapiens, UniProt P09958); experiment: Protease selectivity, Ki on recombinant protease; type: biochemical; conditions: mean ± s.d., max concentration 10 µM; read-out: Ki Furin
T3 construct: purchased Bio-Techne
T3 sequence (P09958 108-794): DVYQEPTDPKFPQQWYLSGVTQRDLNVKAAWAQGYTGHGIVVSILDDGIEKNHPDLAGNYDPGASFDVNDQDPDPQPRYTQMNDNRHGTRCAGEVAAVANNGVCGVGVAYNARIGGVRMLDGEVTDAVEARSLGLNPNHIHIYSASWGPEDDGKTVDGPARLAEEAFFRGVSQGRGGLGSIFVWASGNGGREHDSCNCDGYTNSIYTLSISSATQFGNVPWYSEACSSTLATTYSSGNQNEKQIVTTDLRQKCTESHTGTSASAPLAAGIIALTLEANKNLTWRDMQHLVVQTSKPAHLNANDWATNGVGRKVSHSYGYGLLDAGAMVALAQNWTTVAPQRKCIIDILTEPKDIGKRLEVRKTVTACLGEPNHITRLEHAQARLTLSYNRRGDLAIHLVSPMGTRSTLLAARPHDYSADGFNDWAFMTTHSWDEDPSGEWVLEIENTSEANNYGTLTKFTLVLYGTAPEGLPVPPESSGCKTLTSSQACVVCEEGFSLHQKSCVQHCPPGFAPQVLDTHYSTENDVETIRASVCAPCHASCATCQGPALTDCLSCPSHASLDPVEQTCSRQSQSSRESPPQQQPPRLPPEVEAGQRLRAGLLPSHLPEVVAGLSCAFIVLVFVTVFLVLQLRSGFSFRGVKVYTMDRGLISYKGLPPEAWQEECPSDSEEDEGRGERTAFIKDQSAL

[2] = test system: SARS-CoV-2 lineage B strain (VIDO); experiment: microbe, parasite or virus in culture; type: cell-based; conditions: for Nucleocapsid / dsRNA: Figure 2a, two replicates; for Nucleocapsid: DMSO control about 91-94; for dsRNA: DMSO control about 93-95; for EC50 / inhibition at 0.1 µM: Severe acute respiratory syndrome coronavirus 2, Calu-3; for EC50: read-out: SARS-CoV-2 VIDO Nucleocapsid EC50 ± SE; for inhibition at 0.1 µM: read-out: inhibition of SARS-CoV-2 infection
Recombinant human hepsin = molecular target: T4, Recombinant human hepsin (Homo sapiens, UniProt P05981); experiment: Protease selectivity, Ki on recombinant protease; type: biochemical; conditions: mean ± s.d., max concentration 10 µM; read-out: Ki Hepsin
T4 construct: made in house
T4 sequence (P05981 whole entry): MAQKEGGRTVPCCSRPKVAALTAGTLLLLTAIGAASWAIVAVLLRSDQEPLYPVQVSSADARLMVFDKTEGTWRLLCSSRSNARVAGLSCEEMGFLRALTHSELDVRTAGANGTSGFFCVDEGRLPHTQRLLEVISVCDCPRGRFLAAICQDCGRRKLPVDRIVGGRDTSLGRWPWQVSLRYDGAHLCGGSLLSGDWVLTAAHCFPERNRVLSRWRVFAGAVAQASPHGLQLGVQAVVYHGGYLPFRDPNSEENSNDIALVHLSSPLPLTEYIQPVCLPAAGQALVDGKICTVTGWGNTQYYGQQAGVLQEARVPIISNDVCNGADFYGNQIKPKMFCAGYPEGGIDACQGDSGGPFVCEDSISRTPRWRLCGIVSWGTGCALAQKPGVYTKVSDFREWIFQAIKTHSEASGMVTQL

human thrombin = molecular target: T5, human thrombin (Homo sapiens, UniProt P00734); experiment: Protease selectivity, Ki on protease; type: biochemical; conditions: mean ± s.d., max concentration 10 µM; read-out: Ki Thrombin
T5 construct: purchased MilliporeSigma

human TMPRSS2 = human TMPRSS2 (Homo sapiens, UniProt O15393); experiment: cell-based; conditions: for TMPRSS2 relative activity: technical duplicates; for inhibition at 0.01 µM: Vero C1008, 10 nM compound, 24 h, vs untreated/vehicle TMPRSS2-expressing Vero E6 cells, read-out: inhibition of TMPRSS2 activity (reduction of substrate proteolysis)
Sequence of human TMPRSS2 (O15393 whole entry): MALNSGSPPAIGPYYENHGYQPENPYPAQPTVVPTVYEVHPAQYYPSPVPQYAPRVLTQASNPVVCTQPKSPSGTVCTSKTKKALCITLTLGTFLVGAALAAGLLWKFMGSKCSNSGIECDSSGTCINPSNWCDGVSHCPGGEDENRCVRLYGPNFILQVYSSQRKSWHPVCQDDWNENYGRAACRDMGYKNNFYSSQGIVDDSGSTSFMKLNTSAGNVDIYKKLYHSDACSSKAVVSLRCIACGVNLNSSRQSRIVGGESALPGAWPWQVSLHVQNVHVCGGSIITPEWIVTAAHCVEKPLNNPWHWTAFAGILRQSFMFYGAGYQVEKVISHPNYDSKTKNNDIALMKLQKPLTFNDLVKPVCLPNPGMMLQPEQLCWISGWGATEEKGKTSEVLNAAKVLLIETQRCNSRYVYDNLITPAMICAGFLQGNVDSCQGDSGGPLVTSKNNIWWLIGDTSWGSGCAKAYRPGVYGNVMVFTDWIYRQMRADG

[3] = molecular target: T6, Recombinant human matriptase (Homo sapiens, UniProt Q9Y5Y6); experiment: Protease selectivity, Ki on recombinant protease; type: biochemical; conditions: mean ± s.d., max concentration 10 µM; read-out: Ki Matriptase
T6 construct: made in house
T6 sequence (Q9Y5Y6 1-855): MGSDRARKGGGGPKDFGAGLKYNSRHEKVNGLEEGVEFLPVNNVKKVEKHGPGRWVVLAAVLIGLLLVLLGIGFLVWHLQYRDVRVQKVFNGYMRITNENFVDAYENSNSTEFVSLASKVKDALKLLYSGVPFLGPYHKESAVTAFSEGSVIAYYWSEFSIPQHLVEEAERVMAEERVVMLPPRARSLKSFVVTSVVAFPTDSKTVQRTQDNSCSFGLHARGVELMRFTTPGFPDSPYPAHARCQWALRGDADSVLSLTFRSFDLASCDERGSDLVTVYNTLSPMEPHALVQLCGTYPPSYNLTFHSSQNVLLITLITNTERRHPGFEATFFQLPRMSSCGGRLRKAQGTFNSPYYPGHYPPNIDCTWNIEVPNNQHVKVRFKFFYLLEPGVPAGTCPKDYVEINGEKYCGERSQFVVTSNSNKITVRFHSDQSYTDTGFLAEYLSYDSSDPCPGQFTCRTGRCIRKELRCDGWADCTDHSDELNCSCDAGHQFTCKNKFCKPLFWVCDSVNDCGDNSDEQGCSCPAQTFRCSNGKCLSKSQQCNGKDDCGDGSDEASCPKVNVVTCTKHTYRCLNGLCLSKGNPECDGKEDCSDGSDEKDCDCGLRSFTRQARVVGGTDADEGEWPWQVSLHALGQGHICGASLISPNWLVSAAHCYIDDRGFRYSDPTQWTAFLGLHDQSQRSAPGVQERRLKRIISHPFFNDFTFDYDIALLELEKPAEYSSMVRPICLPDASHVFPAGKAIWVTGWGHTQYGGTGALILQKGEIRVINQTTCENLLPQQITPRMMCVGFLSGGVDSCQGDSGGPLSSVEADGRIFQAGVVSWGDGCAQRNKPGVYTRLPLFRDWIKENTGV

[4] = read-out: % of Viability, Average (n=2)
[5] = single replicates, read-out: % of Viability
[6] = TMPRSS2, mean of independent experiments, Figure 1C, read-out: IC50 Mean
[7] = Vero E6 cells expressing human TMPRSS2, 24 h with fluorogenic substrate, read-out: TMPRSS2 IC50 ± SD

N=C(N)NCCCCC(=O)NC(CCC(N)=O)C(=O)NC(Cc1ccccc1)C(=O)NC(CCCNC(=N)N)C(=O)c1nc2ccccc2s1 (stereo not drawn) [Compound N-0130, (H)RQFR-kbt]
Ki (Recombinant human DESC1): 0.028 ± 0.01 µM
Ki (human cathepsin L): > 10 µM
viability at 24 h, 3000 µM [1, 4]: 44.5%
viability at 24 h, 3000 µM [1, 5]: 42%
viability at 24 h, 1000 µM [1, 4]: 86.5%
viability at 24 h, 1000 µM [1, 5]: 84%
viability at 24 h, 300 µM [1, 4]: 90.5%
viability at 24 h, 300 µM [1, 5]: 90%
viability at 24 h, 100 µM [1, 4]: 91%
viability at 24 h, 100 µM [1, 5]: 88%
viability at 24 h, 30 µM [1, 4]: 96.5%
viability at 24 h, 30 µM [1, 5]: 98%
viability at 24 h, 10 µM [1, 4]: 95%
viability at 24 h, 10 µM [1, 5]: 98%
viability at 24 h, 3 µM [1, 4]: 100%
viability at 24 h, 3 µM [1, 5]: 99%
viability at 24 h, 0.3 µM [1, 4]: 106%
viability at 24 h, 0.3 µM [1, 5]: 103%
viability at 24 h, 0.03 µM [1, 4]: 101%
viability at 24 h, 0.03 µM [1, 5]: 99%
viability at 24 h, 0.003 µM [1, 4]: 104%
viability at 24 h, 0.003 µM [1, 5]: 101%
CC50 at 24 h [1]: 2680 µM
% of Viability (Calu-3 cells; Log [inhibitor] -2.52): 47%
% of Viability (Calu-3 cells; Log [inhibitor] -3.00): 89%
% of Viability (Calu-3 cells; Log [inhibitor] -4.00): 94%
% of Viability (Calu-3 cells; Log [inhibitor] -5.00): 92%
% of Viability (Calu-3 cells; Log [inhibitor] -6.52): 108%
% of Viability (Calu-3 cells; Log [inhibitor] -8.52): 107%
Ki (Recombinant human furin): > 10 µM
Nucleocapsid [2]: 2.419 and 11.8709
dsRNA [2]: 3.583 and 18.343
EC50 [2]: 0.0301 ± 0.0301 µM
inhibition at 0.1 µM [2]: > 93%
Figure 2b dose-response, Mean ([2]; log [C] (nM) 0.20412): 93.6494
Figure 2b dose-response, Mean ([2]; log [C] (nM) 0.90309): 82.4234
Figure 2b dose-response, Mean ([2]; log [C] (nM) 1.60206): 39.6362
Figure 2b dose-response, Mean ([2]; log [C] (nM) 2.30103): 5.2153
Figure 2b dose-response, Mean ([2]; log [C] (nM) 3): 0.8023
Figure 2b dose-response, Mean ([2]; log [C] (nM) -0.49485): 100
Figure 2b dose-response, Mean ([2]; log [C] (nM) -1.19382): 97.2147
Ki (Recombinant human hepsin): 0.00038 ± 0.00019 µM
Ki (human thrombin): 8.23 ± 1.55 µM
TMPRSS2 relative activity (human TMPRSS2; 1.00E-06 M): 5.317 and 4.665
TMPRSS2 relative activity (human TMPRSS2; 1.00E-07 M): 0.9344 and 1.227
TMPRSS2 relative activity (human TMPRSS2; 2.00E-08 M): 26.2346 and 28.2385
TMPRSS2 relative activity (human TMPRSS2; 3.20E-11 M): 95.7258 and 93.264
TMPRSS2 relative activity (human TMPRSS2; 4.00E-09 M): 48.3901 and 50.7993
TMPRSS2 relative activity (human TMPRSS2; 8.00E-10 M): 84.4379 and 85.0608
TMPRSS2 activity (%) (human TMPRSS2; Figure 1B, single experiments N1-N3): 32.9396% and 22.7789% and 30.45%
IC50 (human TMPRSS2; [6]): 0.0031 µM
IC50 (human TMPRSS2; TMPRSS2, single experiments, Figure 1C, read-out: IC50 determined from independant experiments): 0.00174 µM and 0.00287 µM and 0.0047 µM
inhibition at 0.01 µM (human TMPRSS2): 72%
IC50 (human TMPRSS2; [7]): 0.0031 ± 0.0015 µM
Ki [3]: 0.00013 ± 3e-05 µM

N=C(N)NCCCCC(=O)N[C@@H](CCC(=O)O)C(=O)N[C@@H](Cc1ccccc1)C(=O)N[C@@H](CCCNC(=N)N)C(=O)c1nc2ccccc2s1 [Compound N-0438, (H)REFR-kbt]
Ki (Recombinant human DESC1): 0.031 ± 0.003 µM
Ki (human cathepsin L): > 10 µM
viability at 24 h, 3000 µM [1, 4]: 25.5%
viability at 24 h, 300 µM [1, 4]: 87.5%
viability at 24 h, 300 µM [1, 5]: 86%
viability at 24 h, 100 µM [1, 4]: 86%
viability at 24 h, 100 µM [1, 5]: 81%
viability at 24 h, 30 µM [1, 4]: 89%
viability at 24 h, 30 µM [1, 5]: 89%
viability at 24 h, 10 µM [1, 4]: 89%
viability at 24 h, 10 µM [1, 5]: 93%
viability at 24 h, 3 µM [1, 4]: 99%
viability at 24 h, 3 µM [1, 5]: 101%
viability at 24 h, 0.3 µM [1, 4]: 108%
viability at 24 h, 0.3 µM [1, 5]: 111%
viability at 24 h, 0.03 µM [1, 4]: 103%
viability at 24 h, 0.03 µM [1, 5]: 107%
viability at 24 h, 0.003 µM [1, 4]: 104%
viability at 24 h, 0.003 µM [1, 5]: 109%
CC50 at 24 h [1]: 980 µM
% of Viability (Calu-3 cells; Log [inhibitor] -2.52): 12% and 39%
% of Viability (Calu-3 cells; Log [inhibitor] -4.00): 91%
% of Viability (Calu-3 cells; Log [inhibitor] -5.00): 85%
% of Viability (Calu-3 cells; Log [inhibitor] -5.52): 97%
Ki (Recombinant human furin): > 10 µM
Nucleocapsid [2]: 4.61 and 18.8861
dsRNA [2]: 14.5614 and 27.1131
EC50 [2]: 0.0357 ± 0.0245 µM
inhibition at 0.1 µM [2]: > 88%
Figure 2b dose-response, Mean ([2]; log [C] (nM) 0.20412): 87.8313
Figure 2b dose-response, Mean ([2]; log [C] (nM) 0.90309): 62.8653
Figure 2b dose-response, Mean ([2]; log [C] (nM) 1.60206): 44.3084
Figure 2b dose-response, Mean ([2]; log [C] (nM) 2.30103): 28.0955
Figure 2b dose-response, Mean ([2]; log [C] (nM) 3): 3.627
Figure 2b dose-response, Mean ([2]; log [C] (nM) -0.49485): 89.252
Figure 2b dose-response, Mean ([2]; log [C] (nM) -1.19382): 94.5427
Ki (Recombinant human hepsin): 0.00052 ± 7e-05 µM
Ki (human thrombin): > 10 µM
TMPRSS2 relative activity (human TMPRSS2; 1.60E-10 M): 86.6686 and 86.7823
TMPRSS2 relative activity (human TMPRSS2; 2.00E-08 M): 4.266 and 6.221
TMPRSS2 relative activity (human TMPRSS2; 3.20E-11 M): 102.504 and 103.881
TMPRSS2 relative activity (human TMPRSS2; 4.00E-09 M): 35.2539 and 37.178
TMPRSS2 relative activity (human TMPRSS2; 8.00E-10 M): 70.1907 and 73.6892
IC50 (human TMPRSS2; [6]): 0.00517 µM
inhibition at 0.01 µM (human TMPRSS2): 84%
IC50 (human TMPRSS2; [7]): 0.0052 ± 0.0054 µM
Ki [3]: 0.00111 ± 9e-05 µM

— PMC9095466 (Nature, 2022)
